Results as given in ChEMBL document CHEMBL3885881, “DrugMatrix”.

Species on record: Rattus norvegicus
Experiment: DrugMatrix - Regimen: Daily Repeat
Format: toxicity, organism-based, Sprague-Dawley
Set-up: regimen Daily Repeat, gender Male, age 6-8 weeks
Settings: in vivo, sc, route subcutaneous, […]; for ABSOLUTE BASOPHIL / ABSOLUTE EOSINOPHIL / ABSOLUTE LYMPHOCYTE / ABSOLUTE MONOCYTE / ABSOLUTE SEGMENTED NEUTROPHIL / BASOPHIL / EOSINOPHIL / ERYTHROCYTE COUNT / HEMATOCRIT / HEMOGLOBIN / LEUKOCYTE COUNT / LYMPHOCYTE / MEAN CORPUSCULAR HEMOGLOBIN / MEAN CORPUSCULAR HEMOGLOBIN CONCENTRATION / MEAN CORPUSCULAR VOLUME / MONOCYTE / NEUTROPHIL / NUCLEATED RED BLOOD CELLS / PLATELET COUNT: tissue Blood; for ALANINE AMINOTRANSFERASE / ALBUMIN / ALKALINE PHOSPHATASE / ASPARTATE AMINOTRANSFERASE / BLOOD UREA NITROGEN / CARBON DIOXIDE / CHLORIDE / CHOLESTEROL / CREATINE PHOSPHOKINASE / CREATININE / GLUCOSE / LACTATE DEHYDROGENASE / LIPASE / PHOSPHORUS / POTASSIUM / SODIUM / TOTAL BILIRUBIN / TOTAL PROTEIN / URIC ACID: tissue Plasma
[1] = 0.07 mg/kg, 72 h, dose level Low, time 3 day
[2] = 0.07 mg/kg, 120 h, dose level Low, time 5 day
[3] = 72 h, dose 2.5 mg/Kg, dose level High, time 3 day
[4] = 120 h, dose 2.5 mg/Kg, dose level High, time 5 day

In the case of `CC1(C)O[C@@H]2C[C@H]3[C@@H]4C[C@H](F)C5=CC(=O)C=C[C@]5(C)[C@@]4(F)[C@@H](O)C[C@]3(C)[C@]2(C(=O)CO)O1` [FLUOCINOLONE ACETONIDE], the “ABSOLUTE BASOPHIL” value [1] is reported as 0 CELLS/uL, the “ABSOLUTE EOSINOPHIL” value [1] is reported as 53 CELLS/uL and the “ABSOLUTE LYMPHOCYTE” value [1] is reported as 3882.67 CELLS/uL. For the same compound, the “ABSOLUTE MONOCYTE” value [1] was 130 CELLS/uL, the “ABSOLUTE SEGMENTED NEUTROPHIL” value [1] was 1667.67 CELLS/uL and the BASOPHIL [1] was 0%. The EOSINOPHIL [1] was 1%, the “ERYTHROCYTE COUNT” value [1] was 5.77 x10E6/uL and the HEMATOCRIT [1] was 37.27%. For the same compound, the HEMOGLOBIN [1] was 13.5 G/DL, the “LEUKOCYTE COUNT” value [1] was 5.73 x10E3/uL and the LYMPHOCYTE [1] was 66%. The “MEAN CORPUSCULAR HEMOGLOBIN” value [1] was 23.4 pg, the “MEAN CORPUSCULAR HEMOGLOBIN CONCENTRATION” value [1] was 36.23 G/DL and the “MEAN CORPUSCULAR VOLUME” value [1] was 64.67 fL. For the same compound, the MONOCYTE [1] was 2.33%, the NEUTROPHIL [1] was 30.67% and the “NUCLEATED RED BLOOD CELLS” value [1] was 0.67 /100WBC. For the same compound, the “PLATELET COUNT” value [1] was 1436 x10E3/uL, the “ALANINE AMINOTRANSFERASE” value [1] was 77.67 u/L and the ALBUMIN [1] was 5.23 G/DL. The “ALKALINE PHOSPHATASE” value [1] was 414.67 u/L, the “ASPARTATE AMINOTRANSFERASE” value [1] was 135.67 u/L and the “BLOOD UREA NITROGEN” value [1] was 21.33 mg/dL. The “CARBON DIOXIDE” value [1] was 24.33 mmol/L, the CHLORIDE [1] was 102 MEQ/L and the CHOLESTEROL [1] was 107 mg/dL. The “CREATINE PHOSPHOKINASE” value [1] was 290 u/L, the CREATININE [1] was 0.31 mg/dL and the GLUCOSE [1] was 275.67 mg/dL. The “LACTATE DEHYDROGENASE” value [1] was 425.33 u/L, the LIPASE [1] was 10.67 u/L and the PHOSPHORUS [1] was 13.03 mg/dL. For the same compound, the POTASSIUM [1] was 5.79 MEQ/L, the SODIUM [1] was 145.07 MEQ/L and the “TOTAL BILIRUBIN” value [1] was 0.27 mg/dL. The “TOTAL PROTEIN” value [1] was 7.07 G/DL, the “URIC ACID” value [1] was 1.47 mg/dL and the “ABSOLUTE BASOPHIL” value [2] was 0 CELLS/uL. The “ABSOLUTE EOSINOPHIL” value [2] was 0 CELLS/uL, the “ABSOLUTE LYMPHOCYTE” value [2] was 1551.33 CELLS/uL and the “ABSOLUTE MONOCYTE” value [2] was 16 CELLS/uL. For the same compound, the “ABSOLUTE SEGMENTED NEUTROPHIL” value [2] was 3699.33 CELLS/uL, the BASOPHIL [2] was 0% and the EOSINOPHIL [2] was 0%. For the same compound, the “ERYTHROCYTE COUNT” value [2] was 6.67 x10E6/uL, the HEMATOCRIT [2] was 40.23% and the HEMOGLOBIN [2] was 14.73 G/DL. For the same compound, the “LEUKOCYTE COUNT” value [2] was 5.27 x10E3/uL, the LYMPHOCYTE [2] was 32% and the “MEAN CORPUSCULAR HEMOGLOBIN” value [2] was 22.1 pg. For the same compound, the “MEAN CORPUSCULAR HEMOGLOBIN CONCENTRATION” value [2] was 36.6 G/DL, the “MEAN CORPUSCULAR VOLUME” value [2] was 60.37 fL and the MONOCYTE [2] was 0.33%. For the same compound, the NEUTROPHIL [2] was 67.67%, the “NUCLEATED RED BLOOD CELLS” value [2] was 1 /100WBC and the “PLATELET COUNT” value [2] was 1631 x10E3/uL. For the same compound, the “ALANINE AMINOTRANSFERASE” value [2] was 131 u/L, the ALBUMIN [2] was 4.93 G/DL and the “ALKALINE PHOSPHATASE” value [2] was 313 u/L. For the same compound, the “ASPARTATE AMINOTRANSFERASE” value [2] was 231.67 u/L, the “BLOOD UREA NITROGEN” value [2] was 20.33 mg/dL and the “CARBON DIOXIDE” value [2] was 24 mmol/L. For the same compound, the CHLORIDE [2] was 102.33 MEQ/L, the CHOLESTEROL [2] was 92.33 mg/dL and the “CREATINE PHOSPHOKINASE” value [2] was 1505.67 u/L. For the same compound, the CREATININE [2] was 0.26 mg/dL, the GLUCOSE [2] was 389.33 mg/dL and the “LACTATE DEHYDROGENASE” value [2] was 225 u/L. The LIPASE [2] was 10 u/L, the PHOSPHORUS [2] was 13.57 mg/dL and the POTASSIUM [2] was 5.94 MEQ/L. The SODIUM [2] was 147.93 MEQ/L, the “TOTAL BILIRUBIN” value [2] was 0.2 mg/dL and the “TOTAL PROTEIN” value [2] was 6.7 G/DL. For the same compound, the “URIC ACID” value [2] was 2.67 mg/dL, the “ABSOLUTE BASOPHIL” value [3] was 0 CELLS/uL and the “ABSOLUTE EOSINOPHIL” value [3] was 0 CELLS/uL. The “ABSOLUTE LYMPHOCYTE” value [3] was 365.67 CELLS/uL, the “ABSOLUTE MONOCYTE” value [3] was 12.67 CELLS/uL and the “ABSOLUTE SEGMENTED NEUTROPHIL” value [3] was 5188.33 CELLS/uL. For the same compound, the BASOPHIL [3] was 0%, the EOSINOPHIL [3] was 0% and the “ERYTHROCYTE COUNT” value [3] was 4.97 x10E6/uL. The HEMATOCRIT [3] was 32.1%, the HEMOGLOBIN [3] was 11.87 G/DL and the “LEUKOCYTE COUNT” value [3] was 5.57 x10E3/uL. For the same compound, the LYMPHOCYTE [3] was 6.67%, the “MEAN CORPUSCULAR HEMOGLOBIN” value [3] was 24.1 pg and the “MEAN CORPUSCULAR HEMOGLOBIN CONCENTRATION” value [3] was 37.03 G/DL. For the same compound, the “MEAN CORPUSCULAR VOLUME” value [3] was 64.97 fL, the MONOCYTE [3] was 0.33% and the NEUTROPHIL [3] was 93%. For the same compound, the “NUCLEATED RED BLOOD CELLS” value [3] was 0.67 /100WBC, the “PLATELET COUNT” value [3] was 1062 x10E3/uL and the “ALANINE AMINOTRANSFERASE” value [3] was 159.67 u/L. The ALBUMIN [3] was 4.33 G/DL, the “ALKALINE PHOSPHATASE” value [3] was 320.67 u/L and the “ASPARTATE AMINOTRANSFERASE” value [3] was 309.33 u/L. The “BLOOD UREA NITROGEN” value [3] was 24.33 mg/dL, the “CARBON DIOXIDE” value [3] was 26 mmol/L and the CHLORIDE [3] was 97 MEQ/L. The CHOLESTEROL [3] was 133 mg/dL, the “CREATINE PHOSPHOKINASE” value [3] was 322 u/L and the CREATININE [3] was 0.18 mg/dL. For the same compound, the GLUCOSE [3] was 463 mg/dL, the “LACTATE DEHYDROGENASE” value [3] was 822 u/L and the LIPASE [3] was 9.67 u/L. For the same compound, the PHOSPHORUS [3] was 10.6 mg/dL, the POTASSIUM [3] was 4.57 MEQ/L and the SODIUM [3] was 142.47 MEQ/L. For the same compound, the “TOTAL BILIRUBIN” value [3] was 0.27 mg/dL, the “TOTAL PROTEIN” value [3] was 5.4 G/DL and the “URIC ACID” value [3] was 1.03 mg/dL. For the same compound, the “ABSOLUTE BASOPHIL” value [4] was 0 CELLS/uL, the “ABSOLUTE EOSINOPHIL” value [4] was 0 CELLS/uL and the “ABSOLUTE LYMPHOCYTE” value [4] was 450 CELLS/uL. The “ABSOLUTE MONOCYTE” value [4] was 219.33 CELLS/uL, the “ABSOLUTE SEGMENTED NEUTROPHIL” value [4] was 11864 CELLS/uL and the BASOPHIL [4] was 0%. The EOSINOPHIL [4] was 0%, the “ERYTHROCYTE COUNT” value [4] was 5.21 x10E6/uL and the HEMATOCRIT [4] was 33.17%. The HEMOGLOBIN [4] was 12.2 G/DL, the “LEUKOCYTE COUNT” value [4] was 12.53 x10E3/uL and the LYMPHOCYTE [4] was 3.67%. For the same compound, the “MEAN CORPUSCULAR HEMOGLOBIN” value [4] was 23.37 pg, the “MEAN CORPUSCULAR HEMOGLOBIN CONCENTRATION” value [4] was 36.87 G/DL and the “MEAN CORPUSCULAR VOLUME” value [4] was 63.37 fL. The MONOCYTE [4] was 1.67%, the NEUTROPHIL [4] was 94.67% and the “NUCLEATED RED BLOOD CELLS” value [4] was 0 /100WBC. For the same compound, the “PLATELET COUNT” value [4] was 587.67 x10E3/uL, the “ALANINE AMINOTRANSFERASE” value [4] was 194 u/L and the ALBUMIN [4] was 3.57 G/DL. The “ALKALINE PHOSPHATASE” value [4] was 289.67 u/L, the “ASPARTATE AMINOTRANSFERASE” value [4] was 380.33 u/L and the “BLOOD UREA NITROGEN” value [4] was 24.33 mg/dL. For the same compound, the “CARBON DIOXIDE” value [4] was 17.67 mmol/L, the CHLORIDE [4] was 95 MEQ/L and the CHOLESTEROL [4] was 90 mg/dL. The “CREATINE PHOSPHOKINASE” value [4] was 1694.33 u/L, the CREATININE [4] was 0.29 mg/dL and the GLUCOSE [4] was 635 mg/dL. The “LACTATE DEHYDROGENASE” value [4] was 429 u/L, the LIPASE [4] was 10 u/L and the PHOSPHORUS [4] was 14.6 mg/dL. For the same compound, the POTASSIUM [4] was 6.12 MEQ/L, the SODIUM [4] was 139.3 MEQ/L and the “TOTAL BILIRUBIN” value [4] was 0.2 mg/dL. The “TOTAL PROTEIN” value [4] was 4.67 G/DL and the “URIC ACID” value [4] was 3.2 mg/dL.
